Key:
[1] = tested on: catalase; experiment: In vivo catalase activity in tobacco suspension cells (oxygen electrode); format: cell-based; set-up: Inhibition (%) Catalase activity: concentration or dose not given beside the values; details: for Inhibition (%) Catalase activity: Table 8
Method: This was determined by adding increasing concentrations of SA or INA to tobacco suspension cells (derived from cultivar Xanthi nc), as described below. The tobacco suspension cell culture was grown in the dark in MS medium at approximately 22° C. with agitation (160 rpm). Cells were maintained by diluting 10-fold every 5 days. For experimentation, 5 ml of suspension cells obtained 3 days after dilution was transferred to a 25 ml Erlenmeyer flask and agitated (100 rpm) at room temperature in the absence or presence of SA or INA which had been adjusted to pH 5.8. After 1 hr, 1 ml of the treated cell suspension was transferred to 7 ml of fresh MS medium containing SA or INA in a 10 ml beaker (density was approximately 6 mg cells per ml). Cells were maintained in suspension with a magnetic stir bar. In vivo catalase activity was determined by measuring, with an oxygen electrode, the rate of H2 O2 -dependent O2 production immediately after addition of H2 O2 to 10 mM final concentration.

[2] = tested on: SABP/catalase; experiment: Competition with 14C-labeled SA for SABP/catalase in crude leaf extracts; format: binding, tobacco; details: for Inhibition (%) [14C]SA binding: Table 8, 14C-labeled SA 20 μM, 1 mM unlabeled compound, crude leaf extracts
[3] = tested on: salicylic acid binding protein; experiment: Competitive [14C] salicylic acid binding assay (spin-column); set-up: species or system tobacco; details: for Inhibition (%) 2× / Inhibition (%) 10×: [14C] salicylic acid 20 μM; for Inhibition (%) 2×: 40 μM (2×) unlabeled competitor; for Inhibition (%) 10×: 200 μM (10×) unlabeled competitor
Method: The 180 kDa native binding protein isolated was tested for binding affinity and specificity. A competitive assay was established using salicylic acid binding protein fractionated from plants as previously described.
A key element during the characterization and the purification process is a simple, inexpensive, sensitive and reliable method for determining the salicylic acid binding activity. For this purpose, spin-column exclusion chromatography was used to separate the bound [^14 C] salicylic acid (excluded) from the bulk free salicylic acid (included). Specifically, a 1.5 ml Eppendorf tube was punctured at the tip with a 20-gauge needle and a small amount of glass wool was added to cover the small hole. The tube was then filled with Bio-Gel P-6DG desalting gel (exclusion limit 6 KDa; purchased from Bio-Rad, Melville, N.Y.) which have been swollen in water. An alternative gel is Sephadex G-25 fine (from Pharmacia, Piscataway, N.J.). Excess liquid in the gel was removed and centrifuged for 5 minutes at full speed in a Dynamic centrifuge (Becton Dickinson). The process was then repeated several times until the gel filled the tube. After incubation of an aliquot of the extract or column fractions for 2 hr at 4° C. with 5 μM-20 μM [^14 C salicylic acid] (specifically radioactivity 55 Ci/mol; purchased from New England Nuclear), 150 μl of proteins binding sample was loaded onto the tube column, which was then rapidly centrifuged for 2 minutes at full speed and the solution of proteins and bound [^14 C-salicylic acid] that was excluded from the gel was collected into another tube that had been placed under the tube column during the centrifugation. One hundred microliters of this solution was then used to determine the amount of bound salicylic acid. […] For example, to determine the inhibitory effect of various salicylic acid analogues on salicylic acid binding activity, these individual analogues were included in the binding mixture containing both the protein and [^14 C] salicylic acid during the 2 hr incubation, and resulting binding activity was determined in comparison to the activity in the absence of these analogues. Likewise, to determine the effect of pH and antioxidants on the binding activity the protein sample was either dialyzed against a large volume of buffers with different pH or antioxidants were added to the protein sample to various concentrations and the resulting binding activities were then determined with the spin-column method in comparison with the activity determined in the absence of these treatments.

[4] = tested on: resistance or PR gene expression; set-up: key: ++: indicates a high level of biological activity; +: indicates a lower level of biological activity; ±: indicates low, but detectable biological activity in some assays; -: indicates no biological activity; details: Table 3; values reported in literature; cited from earlier work
[5] = tested on: PR1 genes; experiment: PR-1 protein/gene expression in tobacco leaves (immunoblot); format: in vivo; details: for Induction of PR1 gene expression: tobacco leaves
Method: The level of PR1 protein in tobacco leaves was analyzed by immunoblot analysis to establish biological activity. Three leaf discs (1 cm in diameter) were homogenized in 200 microliters of buffer containing 50 mM Tris (pH 8.0), 1 mM EDTA, 12 mM beta-mercaptoethanol and 10 mg/ml phenylmethylsulfonyl fluoride. The homogenate was centrifuged at full speed for 10 minutes in an Eppendorf microcentrifuge. The supernatant was fractionated with 15% polyacrylamide gel under denatured conditions. Protein blotting was done with a monoclonal antibody specific to PR1 protein and protein-antibody complexes were detected with an ECL kit from Amersham.
PR gene expression is both induced by SA and associated with the development of SAR. Therefore, it was of interest to test whether SA's mechanism of action for the induction of PR genes was via its inhibition of catalases which leads to enhanced H2 O2 levels. To address this question, H2 O2 abundance was artificially raised in tobacco leaves by treating with H2 O2 or compounds which either inhibit the catalase activity, like SA itself, or promote generation of H2 O2 in vivo. […]

[6] = target: T1, catalase activity of SABP (Nicotiana tabacum, UniProt P49319); experiment: Catalase activity of highly purified SABP (luminol method); format: biochemical, tobacco; details: 0.05 h; 1 mM SA or analogue, 1 mM H2O2, 500 ng highly purified SABP
T1 sequence (P49319 1-492): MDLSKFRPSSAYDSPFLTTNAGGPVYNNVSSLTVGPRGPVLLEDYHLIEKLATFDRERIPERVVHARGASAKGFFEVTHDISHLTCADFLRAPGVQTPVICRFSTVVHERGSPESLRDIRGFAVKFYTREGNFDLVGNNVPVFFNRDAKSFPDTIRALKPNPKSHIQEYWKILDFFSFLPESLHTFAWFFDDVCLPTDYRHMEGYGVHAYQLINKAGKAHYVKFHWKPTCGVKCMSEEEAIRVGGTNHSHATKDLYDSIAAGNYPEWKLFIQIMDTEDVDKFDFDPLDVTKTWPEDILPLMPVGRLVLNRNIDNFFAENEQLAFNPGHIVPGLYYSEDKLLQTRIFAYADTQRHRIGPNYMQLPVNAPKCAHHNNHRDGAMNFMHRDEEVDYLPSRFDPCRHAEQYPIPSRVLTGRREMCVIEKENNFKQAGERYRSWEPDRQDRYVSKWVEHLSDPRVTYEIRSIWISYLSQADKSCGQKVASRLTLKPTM
Method: Aliquots (50 μl) were removed from the assay mixture at 30 second intervals to assay for amount of H2 O2 remaining using the luminol method as has been described by Warm and Laties, Phytochem. […] The tube was placed in the measuring chamber and assay was initiated with automatic injection into the mixture of 100 μl of 0.5 mM K3 Fe(CN)6 in 0.2N NH4 OH, pH 9.5. Measurements were integrated over 5 second periods. H2 O2 was calculated from the standard curve constructed with known amounts of H2 O2. Rate constants of SABP catalase activity in the presence or absence of SA or its analogues were then calculated based on a first-order mechanism.

[7] = tested on: SABP; set-up: concentration or dose not given beside the values; details: Table 6; previously published data (Chen et al. 1993); cited from earlier work
[8] = tested on: ascorbate peroxidase; experiment: Ascorbate peroxidase activity in tobacco leaf extracts; format: biochemical, Nicotiana tabacum cv. Xanthi nc; details: 200 μM compound, corrected for quenching of auto oxidation
Method: […] Two grams of leaves from 6-8 week old tobacco plants (Nicotiana tabacum cv. Xanthi nc) grown at 22° C. in a 14 hr light cycle were homogenized under liquid nitrogen using a pestle and mortar.
To obtain ascorbate peroxidase-containing extracts, the soluble proteins were extracted by grinding the powder in 10 ml of 100 mM potassium phosphate, pH 7, containing […] ascorbate and 1% (weight/volume) polyvinylpyrrolidone, with a small amount of quartz sand. The homogenate was centrifuged at 14,000 g for 5 min. […] The pellet resulting from centrifugation (14,000 g, 15 min.) was resuspended in extraction buffer (100 mM potassium phosphate, pH7, containing 0.25 mM ascorbate and 1% (weight/volume) polyvinylpyrrolidone) and desalted on a PD-10 column (Pharmacia) equilibrated with 50 mM potassium phosphate, pH 7, containing 100 μM ascorbate. The extract was used immediately. […] The amount of protein per assay was 30-50 μg. Oxidation of ascorbate was followed by the decrease in the absorbance at 290 nm.
The values illustrated in FIG. 17 are the mean values for three replicated assays.

Inhibition (%) [14C]SA binding [2] | Inhibition (%) 2× [3] | Inhibition (%) 10× [3] | Structure (SMILES) | Inhibition (%) Catalase activity [1] | Biological activity [4] | other results
63% |  |  | O=C(O)c1cc(F)nc(F)c1 [STR3] | 48% |  | 
25% |  |  | O=Cc1cc(Cl)nc(Cl)c1 [STR4] | 79% |  | 
7% |  |  | CCCc1cc(C(=O)O)cc(O)n1 [STR7] | 4% |  | 
69% |  |  | O=C(O)c1cc(Br)nc(Br)c1 [STR2] | 100% |  | 
1% |  |  | O=C(O)c1cccc(O)c1 [STR12] | 0% |  | 
19% |  |  | O=C(O)c1cc(O)nc(O)c1 [STR5] | 25% |  | 
11% |  |  | CC(C)c1cc(C(=O)O)cc(O)n1 [STR6] | 15% |  | 

Further lines, the compound ahead of its results:

Structure (SMILES) | Inhibition (%) [14C]SA binding [2] | Inhibition (%) 2× [3] | Inhibition (%) 10× [3] | Inhibition (%) Catalase activity [1] | Biological activity [4] | other results
O=C(O)c1cc(Cl)ccc1O [STR10] | 87% |  |  | 100% |  | 
O=C(O)c1cc(O)c(O)cc1O [3,4,6-Trihydroxybenzoic acid] |  | 1% | -1% |  | - | 
O=C(O)c1cc(Cl)nc(Cl)c1 [STR1] | 65% |  |  | 98% |  | 
OO [H2 O2, hydrogen peroxide] |  |  |  |  |  | Induction of PR1 gene expression [5]: induced the expression of PR-1 genes
O=C(O)c1ccc(Cl)cc1O [STR9] | 88% |  |  | 95% |  | 
O=C(O)c1cc(Cl)cc(Cl)c1O [STR11] | 85% |  |  | 100% |  | 
Nc1ccc(O)c(C(=O)O)c1 [5-Aminosalicylic acid] |  | 1% | -2% |  | - | 
O=C(O)C=Cc1ccccc1O [O-coumaric acid] |  |  |  |  |  | Competition for binding to salicylic acid binding protein ([3]; competitive binding assay): unable to compete for binding; Induction of PR1 gene expression [5]: did not induce PR1 gene expression
Oc1ccccc1O [Catechol] |  | 0% | 1% |  | - | 
O=C(O)c1ccc(O)cc1 [STR13] | 0% |  |  | 0% |  | 
O=C(O)c1ccccc1Cl [2-Chlorobenzoic acid] |  | 0% | 2% |  | - | 
O=C(O)c1ccc(O)c(O)c1 [3,4-Dihydroxybenzoic acid] |  |  |  |  |  | inhibition at 1000 µM [6]: 5.1%; Inhibition (%) [14C]SA binding [7]: 0%
O=Cc1cc(Cl)nc(Cl)c1 [analogue #7] |  |  |  |  |  | Induction of PR-1 protein synthesis / PR-1 gene induction (in words) ([5]; N.t. cv. Xanthi nc): active; Inhibition of catalase activity in vivo (in words) [1]: active; Inhibition of binding of 14C-labeled SA to SABP/catalase in vitro (in words) ([2]; in vitro): much less active
O=C(O)c1ccccc1O [STR8] | 90% |  |  | 84% |  | 
O=C(O)c1ccccc1S [Thiosalicylic acid] |  | -5% | 1% |  | - | % Inhibition of ascorbate peroxidase [8]: 0 ± 2%
CCOc1ccccc1C(=O)O [2-Ethoxybenzoic acid] |  | -3% | 2% |  | - | 
Nc1ccc(C(=O)O)c(O)c1 [4-Aminosalicylic acid] |  | 0% | -1% |  | - | % Inhibition of ascorbate peroxidase [8]: 9 ± 5%
O=C(O)c1c(O)cc(O)cc1O [2,4,6-Trihydroxybenzoic acid] |  | -1% | 3% |  | - | 
O=C(O)c1ccc(O)c(O)c1O [2,3,4-Trihydroxybenzoic acid] |  | 1% | 2% |  | - | 
C[n+]1ccc(-c2cc[n+](C)cc2)cc1 [paraquat] |  |  |  |  |  | Induction of PR1 gene expression [5]: induced
O=C(O)CO [glycolate] |  |  |  |  |  | Induction of PR1 gene expression [5]: induced
O=C(O)c1ccccc1 [Benzoic acid] |  | 14% | 25% |  | + | Inhibition of [14C] salicylic acid binding relative to unlabeled salicylic acid ([3]; as well as unlabeled salicylic acid): about 20%; Induction of PR1 gene expression [5]: able to induce the expression of PR1 genes; Concentration needed relative to salicylic acid for similar levels of PR1 gene expression ([5]; tobacco, FIG. 6A): approximately ten-fold
Nc1cccc(C(=O)O)c1O [3-Aminosalicylic acid] |  | 1% | 5% |  | - | 
